Laboratory results: the supplement of paper PMC10307832

How the values were obtained:
Assay in all cases: relative viability (nuclei count vs DMSO), 5 days (fraction); higher = more cells survive
[1] = compound: C[C@@]1(C(=O)Nc2ccc(F)nc2)CCCN1c1nc(Nc2cc(C3CC3)n[nH]2)c2cccn2n1 + COc1cccc2cc(-c3nc([C@H]4CC[C@H](C(=O)O)CC4)n4ncnc(N)c34)[nH]c12 [OSI-027] (partner 0.5 µM)
Procedure, shortened: (§1)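 Cells from lung cancer lines were seeded into 1536-well plates and, one day later, dosed by pin tool. Treatments were either a single drug or a fixed dose of an anchor drug with five library-drug doses (not always all listed) in √10 steps. After 5 days, nuclei were stained in a one-step fixation (final 0.05% Triton X-100, 1% formaldehyde, 1 ug/ml Hoechst) and counted on 4× images, and relative viability is the treated-to-vehicle nuclei ratio, as the median of duplicate plates.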

[2] = compound: C[C@@]1(C(=O)Nc2ccc(F)nc2)CCCN1c1nc(Nc2cc(C3CC3)n[nH]2)c2cccn2n1 + C[C@]1(O)C[C@@H](c2nc(-c3ccc4ccc(-c5ccccc5)nc4c3)c3c(N)nccn32)C1 [Linsitinib] (partner 1 µM)
Procedure, shortened: as §1

[3] = compound: C[C@@]1(C(=O)Nc2ccc(F)nc2)CCCN1c1nc(Nc2cc(C3CC3)n[nH]2)c2cccn2n1 + Cc1nc(NC(=O)N2CCC[C@H]2C(N)=O)sc1-c1ccnc(C(C)(C)C(F)(F)F)c1 [Alpelisib] (partner 2 µM)
Procedure, shortened: as §1

[4] = compound: C[C@@]1(C(=O)Nc2ccc(F)nc2)CCCN1c1nc(Nc2cc(C3CC3)n[nH]2)c2cccn2n1 + O=C(CCCCCCC(=O)Nc1ccccc1)NO [Vorinostat] (partner 1 µM)
Procedure, shortened: as §1

Cell Line	relative viability ([1]; first compound 0.04 µM)	relative viability ([1]; first compound 0.1265 µM)	relative viability ([1]; first compound 0.4 µM)	relative viability ([1]; first compound 1.265 µM)	relative viability ([2]; first compound 0.04 µM)	relative viability ([2]; first compound 0.1265 µM)	relative viability ([2]; first compound 0.4 µM)	relative viability ([2]; first compound 1.265 µM)	relative viability ([3]; first compound 0.04 µM)	relative viability ([3]; first compound 0.1265 µM)	relative viability ([3]; first compound 0.4 µM)	relative viability ([3]; first compound 1.265 µM)	relative viability ([4]; first compound 0.04 µM)	relative viability ([4]; first compound 0.1265 µM)	relative viability ([4]; first compound 0.4 µM)	relative viability ([4]; first compound 1.265 µM)
HCC-827	0.393	0.782	0.707	0.724	0.94	0.973	0.945	0.961	0.987	1	0.93	1.01	0.891	0.933	0.731	0.823
SK-LU-1	0.252	0.176	0.198	0.219	1.15	1.13	0.74	0.913	1.18	0.965	0.825	0.708	0.804	0.761	0.55	0.367
NCI-H1975	0.663	0.498	0.423	0.527	0.913	0.922	0.933	0.727	0.638	0.553	0.472	0.482	0.639	0.62	0.576	0.316
NCI-H1651	0.658	0.525	0.423	0.501	1.04	0.898	0.984	1.12	0.86	0.785	0.779	0.904	0.547	0.499	0.517	0.448
NCI-H441	0.405	0.322	0.313	0.328	0.435	0.417	0.476	0.543	0.616	0.547	0.492	0.56	0.55	0.3	0.397	0.511
LCLC-103H	0.434	0.295	0.268	0.274	1.23	1.01	1.01	1.18	1.01	0.818	0.829	1.08	0.763	0.62	0.593	0.563
LCLC-97TM1	0.284	0.111	0.122	0.112	0.191	0.173	0.163	0.207	0.186	0.156	0.181	0.181	0.361	0.28	0.106	0.0755
NCI-H727	0.373	0.273	0.383	0.351	0.349	0.135	0.232	0.283	0.33	0.24	0.221	0.303	1.3	0.774	0.774	0.474
NCI-H1355	0.272	0.236	0.21	0.251	0.815	0.882	0.727	0.887	0.816	0.758	0.613	0.868	0.578	0.499	0.403	0.505
HOP-62	0.758	0.574	0.641	0.657	0.927	0.773	1.06	1.06	1.04	0.843	0.897	1.11	0.589	0.529	0.464	0.527
NCI-H2085	0.788	0.679	0.599	0.535	0.877	0.873	0.809	0.822	0.936	0.927	0.883	0.851	0.779	0.728	0.69	0.569
